Target: T1, EIF2AK2 (PKR) (Homo sapiens, UniProt P19525)
T1 construct: purchased Thermo Fisher Scientific (Life Technologies) SelectScreen
Experiment: SelectScreen LanthaScreen
Assay type: binding
Details: 1 µM
How it was run: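 Percent values come from Thermo SelectScreen profiling of NU5455, combining activity and binding assays. CSF1R was run in Z'LYTE format at Km app ATP, and CAMK1 in Adapta format with ATP listed at 10.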

T1 sequence (P19525 whole entry): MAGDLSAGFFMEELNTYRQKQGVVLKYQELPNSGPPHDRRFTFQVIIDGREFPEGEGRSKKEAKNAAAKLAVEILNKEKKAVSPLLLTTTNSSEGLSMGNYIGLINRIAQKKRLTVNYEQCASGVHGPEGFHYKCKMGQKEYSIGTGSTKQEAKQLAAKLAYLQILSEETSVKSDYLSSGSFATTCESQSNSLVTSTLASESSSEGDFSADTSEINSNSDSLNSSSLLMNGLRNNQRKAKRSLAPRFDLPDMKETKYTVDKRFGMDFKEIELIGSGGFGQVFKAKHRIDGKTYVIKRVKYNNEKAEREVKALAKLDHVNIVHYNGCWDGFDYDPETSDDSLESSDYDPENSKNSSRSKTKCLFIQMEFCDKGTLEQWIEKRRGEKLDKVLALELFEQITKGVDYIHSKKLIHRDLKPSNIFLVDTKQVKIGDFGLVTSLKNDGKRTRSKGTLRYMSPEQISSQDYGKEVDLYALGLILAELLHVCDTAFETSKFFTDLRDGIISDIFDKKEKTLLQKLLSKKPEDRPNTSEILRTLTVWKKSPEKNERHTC

## CN(C(=O)CN1CCOCC1)c1ccc2sc3c(-c4cccc5c(=O)cc(N6CC7CCC(C6)O7)oc45)cccc3c2c1 [NU5455]
  % displacement: 13.3%
